According to patent US9427415B2, “Methods and compositions for modifying sensorial perception” (The Procter & Gamble Company, priority 2014, dated 2016):
Where a name gives a salt, the structure may show the parent alone. Read-outs that look alike come from different tables or passages of the source.

Assays:
human TRPA1 = target: T1, human TRPA1 (Homo sapiens, UniProt O75762, K186N/R3C/R58T); assay: Intracellular calcium (Fluo-4, FLIPR) activation of TRPA1 cells by GRAS compounds; assay type: cell-based; details: for activation at 1000 µM / activation at 100 µM: read-out: A1 activation, % of agonist value;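 as to all read-outs here: TRPA1-expressing cells, fluorescence read on a FLIPR Tetra (ex 488 nm, em 514 nm) every 2 s for 10 min after compound addition, baseline subtracted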
T1 construct: expressed in transfected cells; pcDNA3 control cells

TRPA1V1 = assay: Intracellular calcium (Fluo-4, FLIPR) activation of TRPA1V1 cells (co-expressing TRPA1 and TRPV1) by GRAS compounds; assay type: cell-based, human;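 also: HEK293 cells co-expressing TRPA1 and TRPV1, fluorescence read at 488/514 nm after baseline subtraction, recorded every 2 s over 10 min, ionomycin 10 µM and buffer as controls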
[1] = Table 1(e), 1 mM, relative to AITC 30 μM
[2] = Table 1(c), 1 mM, relative to AITC 30 μM
[3] = Table 1(d), 1 mM, relative to AITC 30 μM
[4] = Table 1(c), 100 μM (*), relative to AITC 30 μM

T1 sequence (O75762 whole entry R3C/R58T/K186N): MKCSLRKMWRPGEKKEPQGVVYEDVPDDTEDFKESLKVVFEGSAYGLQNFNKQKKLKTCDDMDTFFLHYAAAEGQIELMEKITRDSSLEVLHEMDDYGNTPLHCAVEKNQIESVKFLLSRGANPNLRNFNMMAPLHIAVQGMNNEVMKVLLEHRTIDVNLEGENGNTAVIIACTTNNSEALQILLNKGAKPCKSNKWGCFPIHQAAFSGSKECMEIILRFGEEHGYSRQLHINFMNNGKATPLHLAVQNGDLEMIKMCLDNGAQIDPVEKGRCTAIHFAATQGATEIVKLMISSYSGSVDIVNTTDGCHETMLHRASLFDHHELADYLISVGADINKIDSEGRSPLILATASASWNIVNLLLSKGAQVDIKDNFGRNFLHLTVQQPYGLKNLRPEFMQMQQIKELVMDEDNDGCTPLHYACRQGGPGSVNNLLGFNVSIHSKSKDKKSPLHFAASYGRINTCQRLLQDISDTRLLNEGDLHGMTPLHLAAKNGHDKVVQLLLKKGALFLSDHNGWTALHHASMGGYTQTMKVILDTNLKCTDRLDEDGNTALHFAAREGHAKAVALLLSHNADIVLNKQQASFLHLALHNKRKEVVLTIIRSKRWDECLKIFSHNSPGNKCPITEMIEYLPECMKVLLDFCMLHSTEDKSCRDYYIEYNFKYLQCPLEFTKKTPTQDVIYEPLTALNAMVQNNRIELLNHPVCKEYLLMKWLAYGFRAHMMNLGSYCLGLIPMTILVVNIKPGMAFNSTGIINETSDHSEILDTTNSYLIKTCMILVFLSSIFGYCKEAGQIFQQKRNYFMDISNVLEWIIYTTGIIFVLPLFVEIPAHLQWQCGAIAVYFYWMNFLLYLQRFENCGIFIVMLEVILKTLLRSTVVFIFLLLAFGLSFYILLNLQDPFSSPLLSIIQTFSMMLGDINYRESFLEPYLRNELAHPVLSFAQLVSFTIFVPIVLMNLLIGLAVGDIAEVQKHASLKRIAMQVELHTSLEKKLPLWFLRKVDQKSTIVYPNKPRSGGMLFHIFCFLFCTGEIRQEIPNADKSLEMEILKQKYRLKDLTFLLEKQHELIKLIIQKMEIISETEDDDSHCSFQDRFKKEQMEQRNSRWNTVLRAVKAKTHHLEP

Compound: CCCC(CCOC(C)=O)SC(C)=O (stereo not drawn) [3-(Acetylmercapto)hexyl acetate]
- activation at 1000 µM (human TRPA1; [1]): 22.3%
- A1V1 activation, % of agonist value (TRPA1V1; [1]): 52.79%

Compound: C/C=C/C=C/C=O [(E,E)-2,4-Hexadienal]
- activation at 1000 µM (human TRPA1; [2]): 92%
- A1V1 activation, % of agonist value (TRPA1V1; [2]): 108.71%

Compound: CCCCCC=CC(=O)O [2-Octenoic acid]
- activation at 1000 µM (human TRPA1; [2]): 55.9%
- A1V1 activation, % of agonist value (TRPA1V1; [2]): 61.77%

Compound: CCCCCCOC(=O)CCC [Hexyl butyrate]
- activation at 1000 µM (human TRPA1; [1]): 43.2%
- A1V1 activation, % of agonist value (TRPA1V1; [1]): 55.89%

Compound: C=C(C)CCC[C@H](C)CCO [Rhodinol]
- activation at 1000 µM (human TRPA1; [3]): 116%
- A1V1 activation, % of agonist value (TRPA1V1; [3]): 78.75%

Compound: CC=CC=CCO [2,4-Hexadienol]
- activation at 1000 µM (human TRPA1; [2]): 78%
- A1V1 activation, % of agonist value (TRPA1V1; [2]): 78.68%

Compound: CC(C)C(=O)OCC(C)c1ccccc1 (stereo not drawn) [2-Phenylpropyl isobutyrate]
- activation at 1000 µM (human TRPA1; [1]): 67.4%
- A1V1 activation, % of agonist value (TRPA1V1; [1]): 102.3%

Compound: CCCC=CC=CC=O [2,4-Octadienal]
- activation at 1000 µM (human TRPA1; [2]): 80.9%
- A1V1 activation, % of agonist value (TRPA1V1; [2]): 82.7%

Compound: CCCC=C1OC(=O)c2ccccc21 [3-Butylidenephthalide]
- activation at 1000 µM (human TRPA1; [2]): 119%
- A1V1 activation, % of agonist value (TRPA1V1; [2]): 115.4%

Compound: O=C(CCl)c1ccccc1 [2-Chloroacetophenone]
- activation at 100 µM (human TRPA1): 93.6%
- activation at 1000 µM (human TRPA1): 91.4%
- A1V1 activation, % of agonist value (TRPA1V1; [4]): 88.8%
- A1V1 activation, % of agonist value (TRPA1V1; [2]): 103%

Compound: COc1ccc(/C=C/C=O)cc1 [Trans-p-methoxy cinnamaldehyde]
- activation at 1000 µM (human TRPA1; [1]): 58.8%
- A1V1 activation, % of agonist value (TRPA1V1; [1]): 75.99%

Compound: C=CCc1ccc(OC(=O)CC(C)C)c(OC)c1 [Eugenyl isovalerate]
- activation at 1000 µM (human TRPA1; [1]): 59.7%
- A1V1 activation, % of agonist value (TRPA1V1; [1]): 79.29%

Compound: O=CC1=CCCCC1 [1-Cyclohexene-1-carboxaldehyde]
- activation at 1000 µM (human TRPA1; [2]): 45.9%
- A1V1 activation, % of agonist value (TRPA1V1; [2]): 48.37%

Compound: CCCCCOC(=O)c1ccco1 [Amyl furoate]
- A1 activation, % of agonist value (human TRPA1; [2]): 81.09%
- A1V1 activation, % of agonist value (TRPA1V1; [2]): 87.70%

Compound: CNc1ccccc1C(=O)OCC(C)C [Isobutyl N-methyl anthranilate]
- A1 activation, % of agonist value (human TRPA1; [3]): 59.73%
- A1V1 activation, % of agonist value (TRPA1V1; [3]): 36.7%

Compound: CC(C)C(=O)OCCOc1ccccc1 [Phenoxyethyl isobutyrate]
- activation at 1000 µM (human TRPA1; [3]): 81%
- A1V1 activation, % of agonist value (TRPA1V1; [3]): 53.9%

Compound: CC(C)=CCCC(C)=CC=O [Citral]
- activation at 1000 µM (human TRPA1; [2]): 145%
- A1V1 activation, % of agonist value (TRPA1V1; [2]): 132.7%

Compound: CC(C)N=C=S [Isopropyl isothiocyanate]
- activation at 1000 µM (human TRPA1; [1]): 41.8%
- A1V1 activation, % of agonist value (TRPA1V1; [1]): 71.6%

Compound: CCCCCC=CC(=O)OCC [Ethyl 2-octenoate]
- activation at 1000 µM (human TRPA1; [2]): 128%
- A1V1 activation, % of agonist value (TRPA1V1; [2]): 120%

Compound: CC1=CCC(C(C)(C)OC=O)CC1 (stereo not drawn) [alpha-Terpinyl formate]
- A1 activation, % of agonist value (human TRPA1; [2]): 82.2%
- A1V1 activation, % of agonist value (TRPA1V1; [2]): 71%

Compound: Cc1c(C(=O)O)c(O)cc2c1C(=O)c1c(O)c(C3O[C@H](CO)[C@@H](O)[C@H](O)[C@H]3O)c(O)c(O)c1C2=O (stereo in doubt) [Carmine]
- activation at 1000 µM (human TRPA1; [2]): 66.2%
- A1V1 activation, % of agonist value (TRPA1V1; [2]): 61.54%

Compound: O=CC=Cc1ccccc1 [Cinnamaldehyde]
- activation at 1000 µM (human TRPA1): 51.2%
- A1V1 activation, % of agonist value (TRPA1V1; [1]): 77.3%

Compound: CCOc1cc(C2OCC(C)O2)ccc1O (stereo not drawn) [Ethyl vanillin propylene glycol acetal]
- A1 activation, % of agonist value (human TRPA1; [2]): 66.41%
- A1V1 activation, % of agonist value (TRPA1V1; [2]): 72.64%

Compound: c1ccc(CCCC2CCCO2)cc1 (stereo not drawn) [Furan, tetrahydro-2-(3-phenylpropyl)-]
- activation at 1000 µM (human TRPA1; [1]): 26%
- A1V1 activation, % of agonist value (TRPA1V1; [1]): 72.09%

Compound: CC/C=C/C=O [Trans-2-Pentenal]
- activation at 1000 µM (human TRPA1; [2]): 80.9%
- A1V1 activation, % of agonist value (TRPA1V1; [2]): 68.62%

Compound: CC1(O)CSC(C)(O)CS1 (stereo not drawn) [2,5-dimethyl-1,4-dithilane-2,5-diol]
- A1 activation, % of agonist value (human TRPA1; [4]): 77.5%
- A1V1 activation, % of agonist value (TRPA1V1; [4]): 87.2%

Compound: CCCCCCCCCC=CC=O [2-Dodecenal]
- activation at 1000 µM (human TRPA1; [1]): 65.5%
- A1V1 activation, % of agonist value (TRPA1V1; [1]): 82.8%

Compound: CC(=O)OCc1ccc(C)cc1 [4-Methylbenzyl acetate]
- activation at 1000 µM (human TRPA1; [1]): 58.9%
- A1V1 activation, % of agonist value (TRPA1V1; [1]): 88.05%

Compound: CCCCCCC/C=C/C=C/C=O [(E,E)-2,4-Dodecadienal]
- activation at 1000 µM (human TRPA1; [3]): 159%
- A1V1 activation, % of agonist value (TRPA1V1; [3]): 55.4%

Compound: CCOC(=O)c1ccccc1O [Ethyl salicylate]
- activation at 1000 µM (human TRPA1; [3]): 41%
- A1V1 activation, % of agonist value (TRPA1V1; [3]): 28%

Compound: CC(=O)c1ccc(C)cc1C [2′,4′-Dimethylacetophenone]
- activation at 1000 µM (human TRPA1; [1]): 24.4%
- A1V1 activation, % of agonist value (TRPA1V1; [1]): 45.30%

Compound: CCOC(=O)c1ccc(OC)cc1 [Ethyl p-anisate]
- activation at 1000 µM (human TRPA1; [2]): 91.2%
- A1V1 activation, % of agonist value (TRPA1V1; [2]): 93.1%

Compound: CCCCCCCC/C=C/C=O [(2E)-Undecenal]
- A1 activation, % of agonist value (human TRPA1; [2]): 59.6%
- A1V1 activation, % of agonist value (TRPA1V1; [2]): 48.8%

Compound: C=C(C)C1CCC(C)C(=O)C1 (stereo not drawn) [p-Menth-8-en-2-one]
- activation at 1000 µM (human TRPA1; [1]): 39.9%
- A1V1 activation, % of agonist value (TRPA1V1; [1]): 59.5%

Compound: CCCCCCCCC/C=C/C=O [Trans-2-dodecenal]
- activation at 100 µM (human TRPA1; [4]): 79.1%
- A1V1 activation, % of agonist value (TRPA1V1; [4]): 66%

Compound: 3-mercaptopropanoate
- A1 activation, % of agonist value (human TRPA1; [2]): 42.7%
- A1V1 activation, % of agonist value (TRPA1V1; [2]): 41.8%

Compound: Cc1ccc(CO)o1 [2-Furanmethanol, 5-methyl-]
- activation at 1000 µM (human TRPA1; [2]): 77.3%
- A1V1 activation, % of agonist value (TRPA1V1; [2]): 76.02%

Compound: CC=Cc1ccc(OC(C)=O)c(OC)c1 [Isoeugenyl acetate]
- activation at 1000 µM (human TRPA1; [2]): 57.6%
- A1V1 activation, % of agonist value (TRPA1V1; [2]): 68.34%

Compound: COc1ccc(C=C(C)C=O)cc1 [Alpha Methyl-4-methoxycinnamaldehyde]
- activation at 1000 µM (human TRPA1; [1]): 67.1%
- A1V1 activation, % of agonist value (TRPA1V1; [1]): 85.80%

Compound: 2-mercaptopropanoate
- A1 activation, % of agonist value (human TRPA1; [3]): 101.5%
- A1V1 activation, % of agonist value (TRPA1V1; [3]): 54.3%

Compound: Cc1ccccc1OC(=O)C(C)C [O-Tolyl isobutyrate]
- A1 activation, % of agonist value (human TRPA1; [2]): 49.37%
- A1V1 activation, % of agonist value (TRPA1V1; [2]): 57.76%

Compound: C/C=C/C=C/C(=O)OC [Methyl sorbate]
- activation at 1000 µM (human TRPA1; [2]): 76%
- activation at 1000 µM (human TRPA1; [1]): 46.4%
- A1V1 activation, % of agonist value (TRPA1V1; [2]): 81.15%
- A1V1 activation, % of agonist value (TRPA1V1; [1]): 83.3%

Compound: CC1=CC(C)C(C=O)CC1 (stereo not drawn) [Trivertal]
- A1 activation, % of agonist value (human TRPA1; [2]): 35.43%
- A1V1 activation, % of agonist value (TRPA1V1; [2]): 36.46%

Compound: CC1=CC(=O)CCC1 [3-Methyl-2-cyclohexen-1-one]
- activation at 1000 µM (human TRPA1; [2]): 94.5%
- A1V1 activation, % of agonist value (TRPA1V1; [2]): 94.76%

Compound: CC=CC=CCOC(=O)CC [2,4-Hexadienyl propionate]
- activation at 1000 µM (human TRPA1; [2]): 93.2%
- A1V1 activation, % of agonist value (TRPA1V1; [2]): 91.20%

Compound: O=Cc1ccccc1O [Salicylaldehyde]
- activation at 1000 µM (human TRPA1; [2]): 66.9%
- A1V1 activation, % of agonist value (TRPA1V1; [2]): 65.6%

Compound: CC=C(C=O)c1ccccc1 [2-Phenyl-2-butenal]
- activation at 1000 µM (human TRPA1): 65.8%
- A1V1 activation, % of agonist value (TRPA1V1): 82.8%

Compound: Cn1cccc1C=O [1-Methylpyrrole-2-carboxaldehyde]
- activation at 1000 µM (human TRPA1; [2]): 81.1%
- A1V1 activation, % of agonist value (TRPA1V1; [2]): 87.70%

Compound: COc1ccc(CCC(C)=O)cc1 [4-Methoxybenzylacetone]
- activation at 1000 µM (human TRPA1; [2]): 62.3%
- A1V1 activation, % of agonist value (TRPA1V1; [2]): 71.16%

Compound: L-Ascorbic acid, calcium salt (2:1)
- A1 activation, % of agonist value (human TRPA1; [2]): 88.00%
- A1V1 activation, % of agonist value (TRPA1V1; [2]): 93.20%

Compound: Cc1ccc(C=O)c(C)c1 [2,4-Dimethylbenzaldehyde]
- activation at 1000 µM (human TRPA1; [2]): 107%
- A1V1 activation, % of agonist value (TRPA1V1; [2]): 102.8%

Compound: CC(C)=CCC[C@](C)(O)C1CC=C(C)CC1 (stereo partly drawn) [Bisabolol]
- activation at 1000 µM (human TRPA1; [2]): 68%
- A1V1 activation, % of agonist value (TRPA1V1; [2]): 73.53%
